Experiment [1] has as its system T47D cells. The experiment in a line: Cellular growth inhibition assay for T47D cells, CellTiter-Glo. Format: cell-based, human. To be noted: 72 hours treatment, CellTiter-Glo 2.0 cell viability. The method in brief:
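Cells are plated at 3000/well and allowed 24 h before treatment. Test compound in medium containing 0.5% DMSO is then added, with DMSO-only wells as negative control, and plates are incubated 72 h at 37 °C. ATP luminescence (CellTiter-Glo 2.0) is then fitted to four parameters to derive GI50.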
On the technique in general: Cellular ATP, detected with luciferase, serves as a proxy for viable cell number.

Experiment [2] deals with T-Rex 293 cell line SC3 cells having increased expression of androgen receptor protein due to exposure to doxycycline. The experiment in a line: Cellular growth inhibition, T-Rex 293 SC3 cells with doxycycline (androgen receptor induced), CellTiter-Glo. Format: cell-based. To be noted: T-Rex 293 SC3 cells with 10 ng/mL doxycycline (increased androgen receptor expression). Summed up:
(§1)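 GI50 came from a four-parameter fit of CellTiter-Glo 2.0 luminescence after 72 h compound exposure (0.5% DMSO, 37 °C), dosing 24 h post-seeding. SC3 clone cells (2500/well), transfected with wild-type androgen receptor, grew in charcoal-stripped serum medium lacking phenol red, induced with 10 ng/mL doxycycline or left uninduced.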

For experiment [3], the system named is T-Rex 293 cell line SC3 cells lacking increased expression of androgen receptor protein. The experiment in a line: Cellular growth inhibition, T-Rex 293 SC3 cells without doxycycline, CellTiter-Glo. The format is cell-based. To be noted: T-Rex 293 SC3 cells not exposed to doxycycline, CellTiter-Glo 2.0. The method in brief:
as §1

Experiment [4] concerns VCaP cells. The experiment in a line: Cellular growth inhibition assay for VCaP cells, CellTiter-Glo. The format is cell-based, human. To be noted: 72 hours treatment, CellTiter-Glo 2.0. The method in brief:
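GI50 values come from four-parameter curve fits of luminescence data normalized to a zero baseline. Compound, in medium with 0.5% DMSO, was added one day after plating and left for 72 h before CellTiter-Glo 2.0 addition.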

Where only a bound is given, the exact number is not on record here.

Broadly, the GI50 is the concentration giving 50% growth inhibition. Read a low GI50 as greater sensitivity of the cells. On to `Cc1sc2c(c1C)C(c1ccc(O[C@H]3C[C@H](OC4CCN(c5ncc(C(=O)N[C@H]6C(C)(C)[C@H](Oc7ccc(C#N)c(Cl)c7)C6(C)C)cn5)CC4)C3)cc1)=N[C@@H](Cc1ncco1)c1nnc(C)n1-2` [Compound I-190], for which the GI50 in experiment [1] (Homo sapiens, T47D, 72 h) is under 500 nM; in experiment [2] (72 h), under 500 nM; in experiment [3] (72 h), over 3000 nM; in experiment [4] (Homo sapiens, VCaP, 72 h), under 500 nM.
For the compound `Cc1sc2c(c1C)C(c1ccc(CCN3CC[C@@]4(C3)CN(c3ncc(C(=O)N[C@H]5C(C)(C)[C@H](Oc6ccc(C#N)c(Cl)c6)C5(C)C)cn3)CC(F)(F)C4)cc1)=N[C@@H](Cc1ncco1)c1nnc(C)n1-2` [Compound I-425], the GI50 was under 500 nM in experiment [1] (Homo sapiens, T47D, 72 h); under 500 nM in experiment [2] (72 h); over 3000 nM in experiment [3] (72 h); under 500 nM in experiment [4] (Homo sapiens, VCaP, 72 h).
Take `Cc1sc2c(c1C)C(c1ccc(CN(C)C(=O)CCc3ncc(C(=O)N[C@H]4C(C)(C)[C@H](Oc5ccc(C#N)c(Cl)c5)C4(C)C)cn3)cc1)=N[C@@H](Cc1ncco1)c1nnc(C)n1-2` [Compound I-317]: the GI50 is 500 to 1500 nM in experiment [1] (Homo sapiens, T47D, 72 h); 1500 to 3000 nM in experiment [2] (72 h); over 3000 nM in experiment [3] (72 h); under 500 nM in experiment [4] (Homo sapiens, VCaP, 72 h).
Turning to `Cc1sc2c(c1C)C(c1ccc(N3CC(CC4CCN(c5cnc(C(=O)N[C@H]6C(C)(C)[C@H](Oc7ccc(C#N)c(Cl)c7)C6(C)C)cn5)CC4)C3)cc1)=N[C@@H](C)c1nnc(C)n1-2` [Compound I-450], the GI50 in experiment [1] (Homo sapiens, T47D, 72 h) is under 500 nM; in experiment [2] (72 h), 500 to 1500 nM; in experiment [3] (72 h) it was over 3000 nM; in experiment [4] (Homo sapiens, VCaP, 72 h), over 3000 nM.
As for `Cc1sc2c(c1C)C(c1ccc(C[C@H]3C[C@@]4(CCCN(c5ncc(C(=O)N[C@H]6C(C)(C)[C@H](Oc7ccc(C#N)c(Cl)c7)C6(C)C)cn5)C4)C3)cc1)=N[C@@H](Cc1ncco1)c1nnc(C)n1-2` [Compound I-156], the GI50 is over 3000 nM in experiment [1] (Homo sapiens, T47D, 72 h); under 500 nM in experiment [2] (72 h); over 3000 nM in experiment [3] (72 h); over 3000 nM in experiment [4] (Homo sapiens, VCaP, 72 h).
Regarding `Cc1sc2c(c1C)C(c1ccc(O[C@H]3CCCN(c4ncc(C(=O)N[C@H]5C(C)(C)[C@H](Oc6ccc(C#N)c(Cl)c6)C5(C)C)cn4)C3)cc1)=N[C@@H](Cc1ncco1)c1nnc(C)n1-2` [Compound I-253], the GI50 in experiment [1] (Homo sapiens, T47D, 72 h) is 500 to 1500 nM; in experiment [2] (72 h), under 500 nM; in experiment [3] (72 h), under 500 nM; in experiment [4] (Homo sapiens, VCaP, 72 h), under 500 nM.
For the compound `Cc1sc2c(c1C)C(c1ccc(O[C@H]3COC4(CCN(c5ncc(C(=O)N[C@H]6C(C)(C)[C@H](Oc7ccc(C#N)c(Cl)c7)C6(C)C)cn5)C4)C3)cc1)=N[C@@H](Cc1ncco1)c1nnc(C)n1-2` (stereo partly shown) [Compound I-195], the GI50 in experiment [1] (Homo sapiens, T47D, 72 h) is under 500 nM; in experiment [2] (72 h), under 500 nM; in experiment [3] (72 h), under 500 nM; in experiment [4] (Homo sapiens, VCaP, 72 h) it was under 500 nM.
`Cc1sc2c(c1C)C(c1ccc(N3CC(C4CCN(c5ncc(C(=O)N[C@H]6C(C)(C)[C@H](Oc7ccc(C#N)c(Cl)c7)C6(C)C)cn5)C4)C3)cc1)=N[C@@H](C)c1nnc(C)n1-2` (stereo partly shown) [Compound I-616]: the GI50 in experiment [1] (Homo sapiens, T47D, 72 h) is under 500 nM; in experiment [2] (72 h), under 500 nM; in experiment [3] (72 h), under 500 nM; in experiment [4] (Homo sapiens, VCaP, 72 h), under 500 nM.
As for `Cc1sc2c(c1C)C(c1ccc(O[C@H]3CC[C@]4(CCCN(c5ncc(C(=O)N[C@H]6C(C)(C)[C@H](Oc7ccc(C#N)c(Cl)c7)C6(C)C)cn5)C4)CC3)cc1)=N[C@@H](Cc1ncco1)c1nnc(C)n1-2` [Compound I-171], the GI50 in experiment [1] (Homo sapiens, T47D, 72 h) is over 3000 nM; in experiment [2] (72 h), under 500 nM; in experiment [3] (72 h) it was under 500 nM; in experiment [4] (Homo sapiens, VCaP, 72 h), under 500 nM.
As for `Cc1sc2c(c1C)C(c1ccc(Cl)cc1)=N[C@@H](CC(=O)NCCCOC1CCN(c3ncc(C(=O)N[C@H]4C(C)(C)[C@H](Oc5ccc(C#N)c(Cl)c5)C4(C)C)cn3)CC1)c1nnc(C)n1-2` [Compound I-20], the GI50 was 500 to 1500 nM in experiment [1] (Homo sapiens, T47D, 72 h); under 500 nM in experiment [2] (72 h); 500 to 1500 nM in experiment [3] (72 h); 500 to 1500 nM in experiment [4] (Homo sapiens, VCaP, 72 h).
Consider `Cc1sc2c(c1C)C(c1ccc(OC3CC4(CCN(c5ncc(C(=O)N[C@H]6C(C)(C)[C@H](Oc7ccc(C#N)c(Cl)c7)C6(C)C)cn5)CC4)C3)cc1)=N[C@](C)(C(C)c1ncco1)c1nnc(C)n1-2` (stereo partly shown) [Compound I-273], for which the GI50 is over 3000 nM in experiment [1] (Homo sapiens, T47D, 72 h); under 500 nM in experiment [2] (72 h); over 3000 nM in experiment [3] (72 h); over 3000 nM in experiment [4] (Homo sapiens, VCaP, 72 h).
On to `Cc1sc2c(c1C)C(c1ccc(N3C[C@@]4(F)CN(c5ncc(C(=O)N[C@H]6C(C)(C)[C@H](Oc7ccc(C#N)c(Cl)c7)C6(C)C)cn5)C[C@@]4(F)C3)cc1)=N[C@@H](C)c1nnc(C)n1-2` [Compound I-587], for which the 50% growth inhibitory concentration (GI50) is under 500 nM in experiment [1] (Homo sapiens, T47D, 72 h); under 500 nM in experiment [2] (72 h); over 3000 nM in experiment [3] (72 h); under 500 nM in experiment [4] (Homo sapiens, VCaP, 72 h).
On to `Cc1sc2c(c1C)C(c1ccc(CCCN3CC4(C3)CN(c3ncc(C(=O)N[C@H]5C(C)(C)[C@H](Oc6ccc(C#N)c(Cl)c6)C5(C)C)cn3)C4)cc1)=N[C@@H](Cc1ncco1)c1nnc(C)n1-2` [Compound I-284], for which the GI50 is under 500 nM in experiment [1] (Homo sapiens, T47D, 72 h); under 500 nM in experiment [2] (72 h); 500 to 1500 nM in experiment [3] (72 h); under 500 nM in experiment [4] (Homo sapiens, VCaP, 72 h).
As to `Cc1sc2c(c1C)C(c1ccc(N3CCC(CNC(=O)c4ncc(C(=O)N[C@H]5C(C)(C)[C@H](Oc6ccc(C#N)c(Cl)c6)C5(C)C)cn4)CC3)cc1)C[C@@H](Cc1ncco1)c1nnc(C)n1-2` (stereo partly shown) [Compound I-276], the GI50 is over 3000 nM in experiment [1] (Homo sapiens, T47D, 72 h); over 3000 nM in experiment [2] (72 h); over 3000 nM in experiment [3] (72 h); 1500 to 3000 nM in experiment [4] (Homo sapiens, VCaP, 72 h).
`Cc1sc2c(c1C)C(c1ccc(N3CCC[C@H](C(=O)NCc4ncc(C(=O)N[C@H]5C(C)(C)[C@H](Oc6ccc(C#N)c(Cl)c6)C5(C)C)cn4)C3)cc1)=N[C@@H](Cc1ncco1)c1nnc(C)n1-2` [Compound I-332]: the GI50 in experiment [1], in experiment [2] (72 hours), in experiment [3] (72 hours) and in experiment [4] was over 3000 nM in each case.
Take `Cc1sc2c(c1C)C(c1ccc(C(F)(F)N3CC4(CCN(c5ncc(C(=O)N[C@H]6C(C)(C)[C@H](Oc7ccc(C#N)c(Cl)c7)C6(C)C)cn5)CC4)C3)cc1)=N[C@@H](Cc1ncco1)c1nnc(C)n1-2` [Compound I-504]: the GI50 in experiment [1] (Homo sapiens, T47D, 72 h) was under 500 nM; in experiment [2] (72 h), under 500 nM; in experiment [3] (72 h), over 3000 nM; in experiment [4] (Homo sapiens, VCaP, 72 h), under 500 nM.
On to `Cc1sc2c(c1C)C(c1ccc(N3CCC(C4CCN(c5cnc(C(=O)N[C@H]6C(C)(C)[C@H](Oc7ccc(C#N)c(Cl)c7)C6(C)C)cn5)CC4)CC3)cc1)=N[C@@H](C)c1nnc(C)n1-2` [Compound I-437], for which the GI50 in experiment [1] (Homo sapiens, T47D, 72 h) is under 500 nM; in experiment [2] (72 h), under 500 nM; in experiment [3] (72 h), over 3000 nM; in experiment [4] (Homo sapiens, VCaP, 72 h), over 3000 nM.
Turning to `Cc1sc2c(c1C)C(c1ccc(CC[C@H]3CCCC(c4ncc(C(=O)N[C@H]5C(C)(C)[C@H](Oc6ccc(C#N)c(Cl)c6)C5(C)C)cn4)C3)cc1)=N[C@@H](Cc1ncco1)c1nnc(C)n1-2` (stereo partly shown) [Compound I-298], the GI50 in experiment [1] (Homo sapiens, T47D, 72 h) is under 500 nM; in experiment [2] (72 h), under 500 nM; in experiment [3] (72 h), under 500 nM; in experiment [4] (Homo sapiens, VCaP, 72 h) it was under 500 nM.
For the compound `COCC[C@@H]1N=C(c2ccc(N3CC(C4CCN(c5ncc(C(=O)N[C@H]6C(C)(C)[C@H](Oc7ccc(C#N)c(Cl)c7)C6(C)C)cn5)CC4)C3)cc2)c2c(sc(C)c2C)-n2c(C)nnc21` [Compound I-610], the GI50 in experiment [1] (Homo sapiens, T47D, 72 h) is 1500 to 3000 nM; in experiment [2] (72 h), under 500 nM; in experiment [3] (72 h) it was over 3000 nM; in experiment [4] (Homo sapiens, VCaP, 72 h), under 500 nM.

The record behind these values is patent publication US20260062422A1 (Halda Therapeutics OpCo, Inc., priority 2022, published 2026).
